Test results as given in patent US12065442B2, “Tropomyosin receptor kinase (TRK) degradation compounds and methods of use” (Cullgen (Shanghai), Inc., priority 2018, dated 2024).
“Also recorded” adds a separate entry of the source. Where two headings read alike, the source gives them in different places.

Tests used:
TPM3-TRKA fusion protein [1] = molecular target: T1, TPM3-TRKA fusion protein (Homo sapiens, UniProt P04629+P06753+Q96SW2); test: Immunoblotting of TPM3-TRKA fusion protein in KM12 cells; assay type: cell-based; set-up: The resulted chimeric proteins always retain the kinase domain of TRK proteins; TPM3 (N-terminal fusion partner, natural gene fusion); endogenous in cells; host or cells: KM12 colon cancer cells
T1 sequence (P06753+P04629 fused): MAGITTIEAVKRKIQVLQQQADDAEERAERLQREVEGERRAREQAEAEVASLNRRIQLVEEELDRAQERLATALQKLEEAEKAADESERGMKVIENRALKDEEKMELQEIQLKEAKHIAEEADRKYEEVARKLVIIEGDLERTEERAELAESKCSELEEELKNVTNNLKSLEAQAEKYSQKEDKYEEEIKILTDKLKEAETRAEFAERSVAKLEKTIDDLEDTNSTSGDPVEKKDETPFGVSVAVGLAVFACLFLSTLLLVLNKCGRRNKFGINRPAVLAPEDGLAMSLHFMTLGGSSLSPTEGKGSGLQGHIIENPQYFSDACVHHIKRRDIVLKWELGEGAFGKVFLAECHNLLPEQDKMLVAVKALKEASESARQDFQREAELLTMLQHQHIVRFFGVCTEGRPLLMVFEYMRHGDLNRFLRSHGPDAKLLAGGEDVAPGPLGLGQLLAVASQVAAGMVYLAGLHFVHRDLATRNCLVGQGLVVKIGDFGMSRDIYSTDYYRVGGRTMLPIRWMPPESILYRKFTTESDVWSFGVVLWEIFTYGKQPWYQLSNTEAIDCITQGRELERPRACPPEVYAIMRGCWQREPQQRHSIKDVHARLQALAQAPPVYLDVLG
T1 sequence (Q96SW2 whole entry, the tested form may be a part): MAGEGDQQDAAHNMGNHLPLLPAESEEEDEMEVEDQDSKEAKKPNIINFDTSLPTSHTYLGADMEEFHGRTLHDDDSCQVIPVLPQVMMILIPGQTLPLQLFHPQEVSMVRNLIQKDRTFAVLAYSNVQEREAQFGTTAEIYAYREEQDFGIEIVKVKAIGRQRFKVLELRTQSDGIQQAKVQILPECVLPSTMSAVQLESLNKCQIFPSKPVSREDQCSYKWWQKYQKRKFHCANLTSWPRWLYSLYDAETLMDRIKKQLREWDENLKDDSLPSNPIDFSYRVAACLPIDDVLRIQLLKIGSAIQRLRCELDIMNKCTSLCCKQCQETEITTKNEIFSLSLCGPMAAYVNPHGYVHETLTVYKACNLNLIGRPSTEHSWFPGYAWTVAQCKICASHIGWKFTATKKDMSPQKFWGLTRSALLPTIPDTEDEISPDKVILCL
T1 sequence (Q16531 whole entry partner, the tested form may be a part): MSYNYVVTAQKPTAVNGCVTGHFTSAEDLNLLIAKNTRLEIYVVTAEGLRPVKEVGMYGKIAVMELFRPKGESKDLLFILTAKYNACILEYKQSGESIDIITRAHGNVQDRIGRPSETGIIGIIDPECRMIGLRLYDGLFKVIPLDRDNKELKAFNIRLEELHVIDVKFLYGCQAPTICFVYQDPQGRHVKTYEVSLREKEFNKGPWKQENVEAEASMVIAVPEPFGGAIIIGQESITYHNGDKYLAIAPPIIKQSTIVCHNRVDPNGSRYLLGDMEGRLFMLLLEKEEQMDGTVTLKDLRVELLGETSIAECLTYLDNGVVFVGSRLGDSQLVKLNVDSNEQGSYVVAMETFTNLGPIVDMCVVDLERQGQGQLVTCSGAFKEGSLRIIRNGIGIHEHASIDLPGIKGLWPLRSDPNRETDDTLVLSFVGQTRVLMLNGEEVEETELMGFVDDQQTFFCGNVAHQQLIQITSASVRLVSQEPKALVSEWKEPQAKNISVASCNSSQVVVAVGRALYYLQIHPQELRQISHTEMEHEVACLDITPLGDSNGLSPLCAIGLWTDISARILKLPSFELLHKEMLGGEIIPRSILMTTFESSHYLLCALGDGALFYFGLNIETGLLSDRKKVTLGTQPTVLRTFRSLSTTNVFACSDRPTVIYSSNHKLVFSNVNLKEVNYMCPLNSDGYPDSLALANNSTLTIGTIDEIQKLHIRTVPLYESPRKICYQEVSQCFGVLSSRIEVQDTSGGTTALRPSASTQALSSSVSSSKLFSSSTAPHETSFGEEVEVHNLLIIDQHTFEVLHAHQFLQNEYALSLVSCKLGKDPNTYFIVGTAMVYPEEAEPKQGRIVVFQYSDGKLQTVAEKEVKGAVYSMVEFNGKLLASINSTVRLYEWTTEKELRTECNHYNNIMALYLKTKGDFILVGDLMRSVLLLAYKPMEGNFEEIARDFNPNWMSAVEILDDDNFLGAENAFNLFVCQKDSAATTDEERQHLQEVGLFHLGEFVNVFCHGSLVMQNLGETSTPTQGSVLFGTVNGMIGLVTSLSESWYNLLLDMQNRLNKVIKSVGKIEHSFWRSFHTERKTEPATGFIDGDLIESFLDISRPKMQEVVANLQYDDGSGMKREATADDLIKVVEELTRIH
Protocol: Specific exemplary bivalent compounds were characterized in KM12 cells. […] Cells were collected, lysed and subject to immunoblotting using an antibody specific to TRK proteins. GAPDH was included as the loading control. DMSO was used as the negative control.
KM12 cells were treated with DMSO or indicated compounds at 100 nM for 16 hours.
KM12 cells were treated with CPD-027, CPD-053, and CPD-060 at 100 nM for indicated incubation time. […]
KM12 or HEL cells were treated with a dose range of compound TR-123 or TR-123-negative. The latter lost binding to cereblon (CRBN) due to a chemical modification.
KM12 or HEL cells were treated with a single dose of compound TR-123 or combination with MG-132, Bortezomib, MLN4924 or Pomalidomide. […]
(§1) Cultured cells were washed with cold PBS once and lysed in cold RIPA buffer supplemented with protease inhibitors and phosphatase inhibitors (Beyotime Biotechnology). The solutions were then incubated at 4° C. for 30 minutes with gentle agitation to fully lyse cells. For tumor tissues, tumors were cut into small pieces, milled with cold RIPA buffer using a mechanical homogenizer and lysed for 1 hour at 4° C. Cell lysates were centrifuged at 13,000 rpm for 10 minutes at 4° C. and pellets were discarded. Total protein concentrations in the lysates were determined by BCA assays (Beyotime Biotechnology). Cell lysates were mixed with Laemmli loading buffer to 1× and heated at 99° C. for 5 min. Proteins were resolved on SDS-PAGE and visualized by chemiluminescence. Images were taken by a ChemiDoc MP Imaging system (Bio-Rad). Protein bands were quantitated using the software provided by Bio-Rad.

KM12 cells = test: Cell viability assay (CellTiter-Glo) in KM12 cells; assay type: cell-based; details: for IC50: Homo sapiens, 72 h, KM12 cell viability, CellTiter-Glo, 3 days, read-out: IC50
KRAS-mutant H358 cells = test: Cell viability assay (CellTiter-Glo) in H358 cells; assay type: cell-based; details: 1000 nM, 8-point 3-fold serial dilution, 3 days (FIG. 4B)
Protocol: The kinase activity of TRK is known to play important roles in tumors expressing TRK-fusion proteins, as TRK kinase inhibitors compromise cell proliferation, survival, and induce marked clinical responses (Amatu et al., 2016; Drilon et al., 2018; Drilon et al., 2017; Khotskaya et al., 2017). […] Three days after treatment, cell viability was determined using the CellTiter-Glo kit following manufacturer's instructions. Cell viability was normalized to the mean values of 3 replicates of untreated cells. Dose-dependent response was analyzed following the least-squares non-linear regression method using the GraphPad Prism 5.0 software. Each data point in the figure represents the mean values of three technical replicates±standard deviation. […] More specifically, all bivalent compounds that had IC50 values smaller than 1000 nM in KM12 cells induced degradation of TPM3-TRKA (FIG. 1 and Table 2-4). […]
Cells were seeded at a density of 5000 cells per well in 96-well assay plates and treated with test compounds following a 12-point 2-fold serial dilution or a 8-point 3-fold dilution. Three days later, cell viability was determined using the CellTiter-Glo assay kit (Promega) according to the manufacturer's instructions. The dose-response curves were determined and IC50 values were calculated using the GraphPad Prism software following a nonlinear regression (least squares fit) method.

TPM3-TRKA fusion protein [2] = molecular target: T1, TPM3-TRKA fusion protein; test: Immunoblotting of TPM3-TRKA in KM12 subcutaneous xenograft tumors; assay type: in vivo, Athymic nude mice; set-up: The resulted chimeric proteins always retain the kinase domain of TRK proteins; TPM3 (N-terminal fusion partner, natural gene fusion); from tissue; host or cells: KM12 subcutaneous xenograft tumors in athymic nude mice
Protocol: In addition to cultured cells, athymic nude mice bearing KM12 subcutaneous xenograft tumors at the right flank were intraperitoneally treated with 10, 20, or 50 mg/kg CPD-053, CPD-027, or CPD-060. Four hours after drug administration, animals were sacrificed for immunoblotting of TPM3-TPKA in homogenized xenograft tumor masses. The label “a” or “b” represents two different samples of the same xenograft tumor.
Athymic nude mice bearing KM12 subcutaneous xenograft tumors at the right flank were intraperitoneally treated with 10, 20, or 50 mg/kg CPD-053, CPD-027, or CPD-060, as indicated in FIG. 3. Four hours after drug administration, animals were sacrificed for immunoblotting of TPM3-TPKA in homogenized xenograft tumor chunks. The label “a” or “b” represents two different chunks of the same xenograft tumor.
Athymic nude mice bearing KM12 subcutaneous xenograft tumors at the right flank were intraperitoneally or orally treated with bivalent compounds at indicated dose. Eight hours after drug administration, animals were sacrificed for immunoblotting of TPM3-TPKA in homogenized xenograft tumor samples.
as §1
(§2) All animal experiments were performed under protocols approved by the Institutional Animal Care and Use Committee (IACUC) of Cullgen. Athymic nude mice (male, 5-weeks old) received 5 million KM12 cells subcutaneously inoculated at the right flank site. Ten days following inoculation, tumors were approximately 500 mm3 in size. Tumor-bearing mice were treated intraperitoneally with vehicle or bivalent compounds at indicated doses. Tumor sizes and body weight of mice were measured every 2 days. In addition, immunoblotting assays were employed to assess the levels of TRKA fusion proteins in xenograft tumors around 500 mm^3 in size following drug administration. At indicated hours after drug administration, selected mice were sacrificed, tumors were resected. Small chunks of tumors were homogenized for immunoblotting of TPM3-TPKA and other proteins as indicated.

[3] = test system: KM12 subcutaneous xenograft tumors; test: KM12 subcutaneous xenograft tumor growth study; assay type: in vivo, Athymic nude mice; details: 10-20 mg/kg qd or bid via oral gavage (FIG. 15A)
Protocol: (§3) Athymic nude mice bearing KM12 subcutaneous xenograft tumors at the right flank were intraperitoneally treated with vehicle or 25 mg/kg CPD-060 once per day (qd), twice per day (bid), or once every two days (q2d). Tumor volumes were assessed every two days and expressed as length×width×width/2. Body weights of experimental mice were also measured to assess the toxicity of compounds.
(§4) Athymic nude mice bearing KM12 subcutaneous xenograft tumors at the right flank were treated with vehicle, 10-20 mg/kg TR-181 or TR-198 once per day (qd), or twice per day (bid) via oral gavage. Tumor volumes were assessed every two days and expressed as length×width×width/2. Body weights of experimental mice were also measured to assess the toxicity of compounds.
as §2

[4] = test system: monoiodoacetate-induced osteoarthritis; test: Monoiodoacetate-induced osteoarthritis pain model in guinea pigs; assay type: in vivo; details: 20 mg/kg i.p., single dose, 6 hours following treatment (FIG. 16B)
[5] = test system: monoiodoacetate-induced osteoarthritis; test: Monoiodoacetate-induced osteoarthritis pain model in rats; assay type: in vivo, Sprague Dawley rats; details: 20 mg/kg i.p., single dose, 6 hours following treatment (FIG. 16A)
[6] = Body weight of xenograft-bearing mice (toxicity); assay type: in vivo, Athymic nude mice; details: 10-20 mg/kg qd or bid via oral gavage (FIG. 15B)
Protocol: as §3, §4, §2

time after adding compound at which significant degradation of TPM3-TRKA was detected (TPM3-TRKA fusion protein [1]; 100 nM (FIG. 2)) | TPM3-TRKA protein levels, time course (TPM3-TRKA fusion protein [1]; 100 nM, indicated incubation time (FIG. 2)) | Structure (SMILES) | TPM3-TRKA protein levels (TPM3-TRKA fusion protein [1]; 100 nM, 16 hours (FIG. 1A-1C)) | viability of KM12 cells (KM12 cells; 500 nM, 12-point 2-fold serial dilution, 3 days (FIG. 4A)) | viability of KM12 cells (KM12 cells; 1000 nM, 8-point 3-fold serial dilution, 3 days (FIG. 4B)) | IC50 (KM12 cells; Table 2) | viability of H358 cells (KRAS-mutant H358 cells) | TPM3-TRKA protein levels in KM12 subcutaneous xenograft tumors (TPM3-TRKA fusion protein [2]; 10, 20, or 50 mg/kg intraperitoneally, single dose, four hours after administration (FIG. 3)) | growth of KM12 subcutaneous xenograft tumors [3] | analgesic activity (percentage of weight born on the injured limb) [4] | analgesic activity (percentage of weight born on the injured limb) [5] | IC50 (KM12 cells; Table 3) | body weight [6] | TPM3-TRKA degradation in KM12 subcutaneous tumors (TPM3-TRKA fusion protein [2]; intraperitoneal or oral administration, eight hours after administration (FIG. 10))
15 min | rapidly reduced TPM3-TRKA protein levels | O=C1CCC(N2C(=O)c3cccc(NCCCC(=O)N4CCN(c5ccc(C(=O)Nc6n[nH]c7ccc(Cc8cc(F)cc(F)c8)cc67)c(NC6CCOCC6)c5)CC4)c3C2=O)C(=O)N1 (centres unmarked) [CPD-053, N-(5-(3,5-Difluorobenzyl)-1H-indazol-3-yl)-4-(4-(4-((2-(2,6-dioxopiperidin-3-yl)-1,3-dioxoisoindolin-4-yl)amino)butanoyl)piperazin-1-yl)-2-((tetrahydro-2H-pyran-4-yl)amino)benzamide] | particularly effective in reducing TPM3-TRKA protein levels | inhibited the viability; also recorded: dose-dependently suppressed viability | significantly inhibited the viability | 1.5 nM | did not affect cell viability | significantly reducing TPM3-TRKA protein levels |  |  |  |  |  | 
 |  | O=C1CCC(N2C(=O)c3ccc(NCCN4CCN(c5cccc(-c6cnc7ccc(N8CCC[C@@H]8c8cccc(F)c8)nn67)n5)CC4)cc3C2=O)C(=O)N1 (stereo partly drawn) [TR-181, 2-(2,6-dioxopiperidin-3-yl)-5-((2-(4-(6-(6-((R)-2-(3-fluorophenyl)pyrrolidin-1-yl)imidazo[1,2-b]pyridazin-3-yl)pyridin-2-yl)piperazin-1-yl)ethyl)amino)isoindoline-1,3-dione] |  |  |  |  |  |  | significant in vivo anti-tumor activity; also recorded: significantly repressed the growth | significant analgesic activity | significant analgesic activity | 3.4 nM | without inducing substantial weight losses | exhibited the activities to induce TPM3-TRKA degradation
